# Results from patent publication US20070203060A1, “Casein Derived Peptides And Therapeutic Uses Thereof” (priority 2004, published 2007).
# Entries after “also recorded” stand apart in the source; their conditions may differ.
# Tests used:
# [1] = tested on: murine primary bone marrow cells (CFU-GEMM); assay: Multipotential colonies (CFU-GEMM) from murine bone marrow cells, colony and differential counts; assay type: cell-based, mouse; settings: for Early (E.MK) megakaryocyte formation (in words): 25 μg or more, 14 days; for Early (E.MK) megakaryocyte formation (in words) / increase in total megakaryocyte proliferation over controls: FIG. 21; for increase in total megakaryocyte proliferation over controls: differential count; for megakaryocyte formation and development (in words): 8 days treatment
# Protocol: Proliferation of megakaryocytes in multipotential colonies (CFU-GEMM) from murine Bone Marrow cells: Primary bone marrow cells (1×10^5 per ml) from 8-12 week-old C3H/HeJ mice were grown in serum-free methyl cellulose-IMDM medium for 8-9 days at 5% CO2, 95% air, at 37° C. The medium, appropriate for the growth of multipotential colonies (CFU-GEMM), contained 1% BSA (Sigma), 10^−4 M thioglycerol (Sigma), 2.8×10^−4 M human transferrin (TF, Biological industries, Israel), 10% WEHI-CM as a source of IL-3 and 2 units per ml erythropoietin (rhEPO, R & D Systems, Minneapolis). […] They were picked with a micropipette, cytocentrifuged and stained with May-Grunwald-Giemsa for differential counts. At least 700 cells were counted for each preparation. […]
# [2] = tested on: platelets of myeloablated, bone marrow transplanted mice; assay: Platelet reconstitution in irradiated bone marrow transplant recipient mice; assay type: in vivo, mouse; settings: for enhancement of platelet counts compared to control mice: F1 mice, 750 cGy, 1 mg i.v., 10 days post-transplantation; for increase in platelet counts over untreated controls / platelet count: 800 cGy, 4 daily i.p. injections; for increase in platelet counts over untreated controls: 100 μg per mouse
# Protocol: Leukocyte and platelet reconstitution in bone marrow transplant recipient mice: BALB/c mice were sub-lethally irradiated at a source to skin distance of 70 cm, dosage of 50 cGy per minute, for a total of 600 cGy. The irradiated mice were reconstituted with syngeneic bone marrow as described above and injected intravenously 24 hours later with 1 mg per animal peptides derived from natural casein, synthetic peptides derived from casein (13-26 amino acids, see Table 3 above), or human serum albumin (controls), following a double-blinded protocol. Leukocyte reconstitution was determined according to cell count in peripheral blood collected at indicated intervals from 6 to 12 days post treatment. Platelet reconstitution was determined by cell count in blood collected from the retro orbital plexus, into EDTA-containing vials, at indicated intervals from day 6 to day 15 post treatment.
# In an additional series of experiments, CBA mice were lethally irradiated (900 cGy), reconstituted with BM cells and treated with peptides derived from natural casein or human serum albumin as described above. Platelet reconstitution was assayed as mentioned above.
# […] Platelet reconstitution was assayed at 10 and 12 days post-transplantation.
# [3] = tested on: human Peripheral Blood Stem Cells / K562 target cells; assay: NK activity of cultured human PBSC (35S release from K562 target cells); assay type: cell-based
# Protocol: From human Peripheral Blood Stem Cells (PBSC): PBSC of G-CSF treated subjects were separated on a FICOLL gradient, washed twice with RPMI-1640 medium containing 10% FCS and glutamine, and seeded into 1.5 ml wells with or without peptides derived from natural casein or synthetic peptides derived from casein, as indicated, (0-500 μg per ml). Following two days incubation the cells were assayed for Natural Killer activity by measuring radioactivity released from ^35S-labeled K562 target cells (NEG-709A, 185.00 MBq, 2.00 mCi EASYTAGth Methionine, L-[^35S] 43.48 TBq per mmol, 1175.0 Ci per mmol, 0.488 ml, Boston USA). Two concentrations of effector cells (2.5×10^5 and 5×10^5 cells per well) were incubated with 5×10^3 target cells per well (effector:target cell ratios of 50:1 and 100:1, respectively) in U-bottomed 96 well tissue culture plates. The cells were incubated for 5 hours at 37° C. in 5% CO2, 95% air and precipitated by 5 minutes centrifugation at 1000 rpm. ^35S release was measured in 50 μl samples of the supernatant liquid.
# [4] = tested on: HIV-1 infection of CEM cells; assay: Inhibition of in vitro HIV-1 infection of CEM lymphocytes (cell counts, P24 antigen assay); assay type: cell-based
# Protocol: Peptides: Peptides (either peptides derived from natural casein or synthetic peptides derived from casein (2-26 amino acids in length, see table 3) supplied as lyophilized powder were resuspended in RPMI complete medium and added to cell cultures at a final concentrations of 50 to 1000 μg per ml.
# Cells: Several types of freshly isolated human cells (primary cells) and cell lines are known to be susceptible to in vitro HIV-1 infection, although essentially any cell displaying even low surface levels of the CD4molecule can be considered a potential target for HIV-1 infection. Two commonly used human cell lines which are highly sensitive for HIV-1 infection were chosen, CEM and Sup-T1.
# CEM is a human T4-lymphoblastoid cell line initially derived by G. E. Foley et al. [(1965), Cancer 18:522] from peripheral blood buffy coat of a person with acute lymphoblastic leukemia. These cells were continuously maintained in suspension in medium, and have been used widely for analysis of infectivity, antiviral agents and neutralizing antibodies.
# Virus: The HIV virus strain employed was HIV-1IIIB, originally designated HTLV-IIIB. Concentrated culture fluids of peripheral blood from several patients with AIDS or related diseases were used to establish a permanent productive infection in H-9 cells. This subtype B virus has high capacity to replicate in human T-cell lines. Viral titer was 5.38 ng per ml in stock solution.
# HIV-1 P^24 antigen capture assay: An HIV-1 P^24 Antigen capture assay kit employed was designed to quantitate the HIV-1 P^24 core antigen, which is proportionally related to the degree of viral production in cells. This kit was purchased from the AIDS Vaccine program of the SAIC-NCI-Frederick Cancer Research Institute, P.O. Box B, Frederick, Md. 21702, USA and included 96 well plates coated with monoclonal antibody to HIV-1 P^24, primary antibody-rabbit anti-HIV P^24 serum, secondary antibody-Goat anti-rabbit-IgG (H+ L) peroxidase conjugated antibody, TMB peroxidase substrate system and lysed HIV-1 P^24 standard. The HIV-1 P^24 antigen capture assay was analyzed by Organon-Technica ELISA reader at 450 nm with a reference at 650 nm.
# HIV-1 P^24 antigen capture ELISA: HIV infection was measured with an indirect enzyme immunoassay which detects HIV-1 P^24 core antigens in tissue culture media. Tissue culture supernatant was reacted with primary rabbit anti-HIV-1 P^24 antigen and visualized by peroxidase conjugated goat anti rabbit IgG. The reaction was terminated by adding 4N H2SO4, wherein the intensity of the color developed is proportional to the amount of HIV-1 antigen present in the tissue culture supernatant.
# HIV infection of human cultured CD4 cells: For longer incubations, the cells (CEM, Sup-T1) were preincubated with several increasing concentrations of peptides derived from natural casein (50-1000 μg per ml) or synthetic peptides derived from casein (10-500 μg per ml) for 24 (for synthetic and natural peptides) and 48 (only for natural peptides) hours and HIV-1IIIB (45 pg per ml final concentration) was added to each well thereafter. For the shorter incubations (3 hours), HIV-1IIIB was preincubated with the peptides for 3 hours and then added to cells (5000 cells/well) in tissue culture plates. Controls were IF (Infected, cells cultured with HIV-1 and without peptides), UIF (Uninfected, cells cultured without HIV-1 and without peptides) and UIF+Ch (Uninfected+peptides derived from natural casein, cells cultured in the presence of peptides derived from natural casein {50-1000 μg per ml}) to test the effect of peptides derived from natural casein and synthetic peptides derived from casein on cell viability and growth. Cells were counted for viability and proliferation rate on day 7, 10 and day 14 post infection (the day of P^24 antigen culture supernatant harvest). Cells and tissue culture supernatants (media) were harvested and lysed immediately in 1/10 volume of 10% Triton X-100. […]
# [5] = tested on: glucose metabolism in NOD mice; assay: Intraperitoneal Glucose Tolerance Test (IPGTT) in NOD mice; assay type: in vivo, mouse; settings: healthy NOD mice after 25 weeks
# Protocol: Intraperitoneal Glucose Tolerance Test (IPGTT): The glucose tolerance test is the definitive method for investigating glucose metabolism and diabetic tendencies in mammals. Twenty five (25) weeks after receiving Synthetic peptides derived from casein, response to a glucose load was assessed with an intraperitoneal glucose tolerance test. Glucose injection consisted of 1 g/kg body weight. Glycemic values were determined from blood drawn prior to test (0 minutes) and 60 minutes after loading.
# [6] = tested on: peripheral white blood cells of myeloablated, bone marrow transplanted mice; assay: Leukocyte reconstitution in irradiated bone marrow transplant recipient mice; assay type: in vivo, mouse; settings: for peripheral white blood cell count: BALB/c, 600 cGy, 1 mg per mouse i.p.; for early leukocyte reconstitution (in words): F1 mice, 750 cGy, 1 mg i.v., 5 and 7 days post-transplantation
# [7] = tested on: human bone marrow progenitor cells (CFU-GM); assay: CFU-GM colonies from human bone marrow progenitor cells with IL-3 and G-CSF; assay type: cell-based; settings: 300 μg/ml, G-CSF and IL-3, 14 days
# Protocol: Cells were scored in the macroscopic colonies grown from human bone marrow cells prepared similarly to the CFU-GEMM colonies previously described. Cells were incubated with hematopoietic factors cytokine (IL-3) and colony stimulating factor (G-CSF), and 25 μg or more of synthetic peptides derived from casein: peptide J, representing amino acids 1-22 of α-S1 casein (SEQ ID NO. 21), or β-casein, representing amino acids 193-208 of β-casein (SEQ ID No. 28). Exposure of the human bone marrow progenitor cells to peptides derived from casein was for 14 days. Stimulation of colony formation (CFU) is expressed as the number of myeloid per colonies in 10^5 plated MNCs. Note the synergistic increase (>50% with 100 μg/ml of peptide J, and >30% with 300 μg/ml of synthetic β-casein) in myelocyte formation in cultures exposed to G-CSF, IL-3 and the synthetic peptides derived from β-casein and an N terminal portion of α-S1 casein.
# A similar effect of synthetic peptides derived from α-, β- or κ-casein was observed on the proliferation of granulocytes and macrophages from human bone marrow progenitor cells. […] (FIG. 20). Thus, synthetic peptides derived from αS1-, αS2-, β- or κ-casein or combinations thereof are effective in augmenting the effect of granulopoietic factors such as G-CSF on bone marrow hematopoietic progenitor cell differentiation and expansion.
substance,measurement,setting,value
MAIPPKKNQDKTEIPTINTIAS [κ 106-127],Early (E.MK) megakaryocyte formation (in words),[1],dramatic effect
same,increase in total megakaryocyte proliferation over controls,[1],21%
same,enhancement of platelet counts compared to control mice,[2]; listed as SEQ ID NO: 30,26%
RPK [1P],patients responding (of the 5 tested),[3]; 25 μg/ml peptide,3
same,patients responding (of the 5 tested),[3]; 100 μg/ml peptide,1
same,patients responding (of the 5 tested),[3]; 250 μg/ml peptide,1
same,"target cell lysis, fold that of untreated controls",[3]; PBS cells from donors with hematopoietic disease,≥ 2 fold
same,HIV-P24 antigen,"[4]; 100 μg/ml, 7 days post infection, untreated control 0.52",0.17 ng P^24 Antigen/ml
same,HIV-P24 antigen,"[4]; 500 μg/ml, 7 days post infection, untreated control 0.52",0.14 ng P^24 Antigen/ml
RPKHP [3P],megakaryocyte formation and development (in words),[1],significant increase
same,HIV-P24 antigen,"[4]; virus pre-treated 3 hours, 10 μg per ml, 7 days post infection, control 0.52",0.26 ng P^24 Ag per ml
same,HIV-P24 antigen,"[4]; virus pre-treated 3 hours, 25 μg per ml, 7 days post infection, control 0.52",0.18 ng P^24 Ag per ml
RPKHPI [4P],megakaryocyte formation and development (in words),[1],significant increase
same,increase in platelet counts over untreated controls,[2]; 12 days post transplantation,29%
same,platelet count,[2]; 12 days post transplantation,872000 mL⁻¹
same,HIV-P24 antigen (in words),"[4]; virus pre-incubated 3 hours, 7 days post infection",dose dependent reduction
same,cell counts,"[4]; virus pre-treated 3 hours, 250 μg per ml, infected control 1.06×10^6",1.59×10^6
RPKHPIKHQ [X],glucose tolerance (IPGT) test result in words,[5],no evidence of abnormal glucose metabolism
RPKHPIKHQGL [2a],megakaryocyte formation and development (in words),[1],significant increase
RPKHPIKHQGLP [3a],megakaryocyte formation and development (in words),[1],significant increase
same,increase in platelet counts over untreated controls,[2]; 10 days post transplantation,up to 35.5%
same,increase in platelet counts over untreated controls,[2]; 12 days post transplantation,up to 13.5%
same,platelet count,[2]; 10 days post transplantation,229000 mL⁻¹
same,platelet count,[2]; 12 days post transplantation,622000 mL⁻¹
RPKHPIKHQGLPQEVLN,megakaryocyte formation and development (in words),[1],significant increase
RPKHPIKHQGLPQEVLNE [F],megakaryocyte formation and development (in words),[1],significant increase
RPKHPIKHQGLPQEVLNENL,megakaryocyte formation and development (in words),[1],significant increase
RPKHPIKHQGLPQEVLNENLL,megakaryocyte formation and development (in words),[1],significant increase
RPKHPIKHQGLPQEVLNENLLR [J],Early (E.MK) megakaryocyte formation (in words),[1],dramatic effect
same,peripheral white blood cell count,[6]; day 10,2.74 ×10^6 cells per ml
same,peripheral white blood cell count,[6]; day 12,5.20 ×10^6 cells per ml
same,early leukocyte reconstitution (in words),[6]; listed as SEQ ID NO: 21,dramatic enhancement; also recorded: strong stimulation
RPKHPIKHQGLPQEVLNENLLRFF,megakaryocyte formation and development (in words),[1],significant increase
YQEPVLGPVRGPFPII [β 193-208],Early (E.MK) megakaryocyte formation (in words),[1],dramatic effect
same,increase in total megakaryocyte proliferation over controls,[1],32%
same,enhancement of granulopoietic stimulating effect of G-CSF (myelocyte formation),[7]; listed as SEQ ID NO: 28,30%
same,enhancement of granulopoietic stimulating effect of G-CSF (myelocyte formation),[7]; listed as synthetic β-casein,> 30%
same,early leukocyte reconstitution (in words),[6]; listed as SEQ ID NO: 28,dramatic enhancement; also recorded: strong stimulation
same,enhancement of platelet counts compared to control mice,[2]; listed as SEQ ID NO: 28,32%
